This is an account of results in ChEMBL document CHEMBL1155378, “Design, synthesis, and evaluation of indole compounds as novel inhibitors targeting Gp41” (Bioorg Med Chem Lett, 2010).

Each structure is given as a SMILES string.

Series [1] in a line: Cytotoxicity against human HL2/3 cells after 24 hrs by XTT proliferation assay. Format: cell-based. Particulars: hl2/3, 24 h. On the technique in general: Tetrazolium dyes change colour on reduction, which living cells bring about.
Series [2] can be described thus: Displacement of C18-Aib-lucifer yellow from HIV1 envelope glycoprotein gp41 Fe(env2.0)3 by fluorescence assay. Also on record: species or system Human immunodeficiency virus 1.
The nature of series [3]: Inhibition of HIV1 envelope glycoprotein 41-mediated membrane fusion between virus-transfected human HL2/3 cells and human TZM-bl cells after 6 hrs by fluorescence-based cell-cell fusion assay. Also on record: species or system Human immunodeficiency virus 1.
The subject of series [4] is Human immunodeficiency virus 1. Kind of series: Inhibition of HIV1 envelope glycoprotein gp41 by cell-cell fusion assay.
A short description of series [5]: Inhibition of HIV1 envelope glycoprotein gp41. Also on record: species or system Human immunodeficiency virus 1.

One may read the CC50 as the concentration at which the toxic effect on the cells reaches its halfway point. In turn, `COc1ccc(Cn2ccc3ccc(Cc4cccc(C(=O)O)c4)cc32)cc1` registered a CC50 in series [1] of 100 µM. A word on the Ki: it is a dissociation constant, usually derived from enzyme kinetics or from competition with a known ligand. A higher Ki goes with weaker binding. The molecule `O=C(O)c1cccc(Cc2ccc3ccn(-c4cccc(C(=O)O)c4)c3c2)c1` had a Ki in series [2] of 107 µM. Also, the half-maximal cytotoxic concentration (CC50) in series [1] is more than 400 µM. The IC50 is the point on the concentration scale where inhibition reaches its midpoint. In series [2], `O=C(O)c1cccc(Cc2ccc(F)cc2)c1` displayed a Ki of 548 µM. The molecule further showed a half-inhibitory concentration (IC50) in series [3] of 560 µM. In turn, `COc1cccc(-n2ccc3ccc(Cc4cccc(C(=O)O)c4)cc32)c1` showed a CC50 in series [1] of more than 100 µM.

The molecule `Cc1ccc(C2=NNC3C=CC4C(C(F)(F)F)=CC(C(F)(F)F)=NC4N23)cc1` (stereo not given) yielded a 50% inhibitory concentration (IC50) in series [3] of 18 µM. For `O=C(O)c1cccc(Cc2ccc3ccn(Cn4ccc5ccc(Cc6cccc(C(=O)O)c6)cc54)c3c2)c1`, in series [1], the CC50 was determined as 80 µM. This counts as double-digit micromolar. As for `COc1ccc(S(=O)(=O)O)cc1/N=N/c1c(S(=O)(=O)O)cc2cc(Nc3nc(Nc4ccccc4)nc(Nc4cc(C)c(/N=N/c5cc(S(=O)(=O)O)cc6cc(S(=O)(=O)O)cc(O)c56)cc4OC)n3)ccc2c1O`, the INH in series [4] was 4.2 µM. The molecule further registered an IC50 in series [5] of 0.62 µM.
